pEC50: −log10 of the molar value. Like-named read-outs stand apart in the source and are kept apart here.

In one test the target is A2AR-CB1R heterotetramer (Homo sapiens, UniProt P21554+P29274).
In another test the target is A2AR-CB1R heteromer (Homo sapiens, UniProt P21554+P29274).
Test [1] concerns the target CB1R (Homo sapiens, UniProt P21554). The settings on record: CP55940 200 nM; cells transfected with CB1R.
Test [2] concerns rat striatal synaptosomes. The test is described as follows: Depolarization-evoked glutamate release from striatal synaptosomes. The class given is cell-based. The settings on record: for Evoked glutamate release, expressed as the difference in % of the control value: WIN55,212-2 0.1 μM, n = 6.
Test [3] relates to CB1R. More on the design: method as in PMID 16365309, PMID 1331766. Conditions: cited from earlier work.
Test [4] relates to CB1R. More on the design: method as in PMID 16365309, PMID 1331766. Conditions: cited from earlier work. The source holds these as a separate data set.
Setting [5] is: PTX 10 ng/ml overnight or CTX 100 ng/ml 2 h.

Sequence of A2AR-CB1R heterotetramer (P29274 whole entry): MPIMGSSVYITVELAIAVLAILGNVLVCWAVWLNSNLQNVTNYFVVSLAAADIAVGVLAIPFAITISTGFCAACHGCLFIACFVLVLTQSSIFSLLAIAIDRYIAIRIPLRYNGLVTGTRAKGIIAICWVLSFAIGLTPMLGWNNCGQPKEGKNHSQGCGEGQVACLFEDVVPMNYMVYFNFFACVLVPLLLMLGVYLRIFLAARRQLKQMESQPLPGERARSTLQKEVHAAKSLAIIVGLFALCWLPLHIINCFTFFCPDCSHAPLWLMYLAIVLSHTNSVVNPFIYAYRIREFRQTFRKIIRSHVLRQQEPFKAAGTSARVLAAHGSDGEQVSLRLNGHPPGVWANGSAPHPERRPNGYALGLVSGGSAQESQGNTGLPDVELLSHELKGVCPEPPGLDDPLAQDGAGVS
Sequence of A2AR-CB1R heterotetramer (P21554 whole entry): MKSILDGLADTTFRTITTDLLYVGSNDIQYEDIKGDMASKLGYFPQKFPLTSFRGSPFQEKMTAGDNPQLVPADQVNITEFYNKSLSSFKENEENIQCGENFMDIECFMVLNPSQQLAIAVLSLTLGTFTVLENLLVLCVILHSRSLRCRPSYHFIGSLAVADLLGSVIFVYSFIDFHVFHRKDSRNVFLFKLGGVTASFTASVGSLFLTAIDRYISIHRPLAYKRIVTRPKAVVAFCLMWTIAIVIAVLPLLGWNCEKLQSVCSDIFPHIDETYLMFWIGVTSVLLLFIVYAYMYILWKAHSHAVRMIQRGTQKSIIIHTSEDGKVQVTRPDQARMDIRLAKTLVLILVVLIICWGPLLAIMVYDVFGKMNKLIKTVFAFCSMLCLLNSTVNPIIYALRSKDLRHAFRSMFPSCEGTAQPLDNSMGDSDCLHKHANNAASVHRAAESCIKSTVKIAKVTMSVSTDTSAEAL
Sequence of A2AR-CB1R heteromer (P29274 whole entry): as the sequence (P29274 whole entry) above
Sequence of A2AR-CB1R heteromer (P21554 whole entry): as the sequence (P21554 whole entry) above
Sequence of CB1R (Homo sapiens, UniProt P21554) (P21554 whole entry): as above

As to `CCCCCCC(C)(C)c1ccc([C@@H]2C[C@H](O)CC[C@H]2CCCO)c(O)c1` [CP55940], the “Effect on CGS21680-mediated increase in cAMP” value on A2AR-CB1R heterotetramer was “counteracted CGS21680-mediated increase in cAMP”. Moreover, the “Effect on the concentration-response curve of NECA (Gs activation)” value at A2AR-CB1R heteromer (CP55940 10 μM, Gαs-YFP) was “did not produce a significant shift”. The “Concentration-response curve of ligand-induced changes in BRET: G protein coupling” value on A2AR-CB1R heteromer (cells co-transfected with either Gαs-, Gαi1- or Gαq-YFP) is on record as “could only be obtained when the cells were transfected with Gαi-YFP”. For the same compound, the “Effect on cAMP formation induced by forskolin (500 nM)” value on CB1R [1] is “decreased cAMP formation”.
On to `Nc1nc2c(cnn2CCc2ccccc2)c2nc(-c3ccco3)nn12` [SCH58261], for which, in test [2], the “Effect of co-application on the effect of WIN55,212-2 on glutamate release” value is listed as “did not significantly modify”; the “Effect on the concentration-response inhibitory curve of WIN55,212-2” value is “shifted to the right”; the “Effect on the inhibition of glutamate release by 0.01 and 0.03 μM of WIN55,212-2” value is “fully prevented”. Moreover, in test [2] (SCH58261 10 μM), the “Effect on evoked glutamate release” value is recorded as “significantly inhibited the evoked glutamate release”.
For cholera toxin [CTX], on A2AR-CB1R heterotetramer, the “Effect on CGS21680-induced cAMP increase” value is recorded as “blockade” and the “Effect on CP55940-induced cAMP decrease” value is given as “also blocked”.
Take pertussis toxin [PTX]: at A2AR-CB1R heterotetramer (setting [5]), the “Effect on CGS21680-induced cAMP increase” value is given as “also blocked” and the “Effect on CP55940-induced cAMP decrease” value is listed as “blockade”. For the same compound, the “Effect on WIN55,212-2 (0.1 μM) inhibition of glutamate release” value in test [2] (PTX 2 μg/ml, 4 h at 4 °C) is “fully prevented this inhibition”.
Turning to `CCNC(=O)[C@H]1O[C@@H](n2cnc3c(N)nc(NCCc4ccc(CCC(=O)O)cc4)nc32)[C@H](O)[C@@H]1O` [CGS21680], the “Effect on the inhibition of glutamate release by 0.01 and 0.03 μM of WIN55,212-2” value in test [2] (CGS21680 0.03 μM or SCH58261 0.1 μM) is reported as “fully prevented”. In addition, the “Effect of co-application on the effect of WIN55,212-2 on glutamate release” value in test [2] (CGS21680 0.03 μM plus SCH58261 0.1 μM) is “did not significantly modify”.
As to `Cc1c(C(=O)c2cccc3ccccc23)c2cccc3c2n1[C@H](CN1CCOCC1)CO3` [WIN55,212-2], the “Evoked glutamate release, expressed as the difference in % of the control value” in test [2] (synaptosomes incubated 4 h at 4 °C with PTX (2 μg/ml)) was 114.6% ± 6.8; in test [2] (toxin-naïve synaptosomes), 82.9% ± 3.6. The “Further inhibition of evoked glutamate release in the presence of SCH58261 (10 μM)” value in test [2] (WIN55212-2 0.3 μM) is recorded as “could not be further inhibited”. Further, in test [2] (WIN55,212-2 alone, 30 mM KCl, read-out: EC50 of inhibition of evoked glutamate release), the negative-log EC50 (pEC50) (as a rule, −log10 of the EC50, conventionally taken in molar units) is 8.26. Besides, in test [2] (at 0.03 μM), the “Maximal effect on evoked glutamate release” value is 77.0 ± 3.0 % of DMSO control. For the same compound, the “Potency relative to CP55940 at inhibiting forskolin-induced cAMP production” value in the test on CB1R [3] is on record as “less potent”. In the test on CB1R [4], the “Potency relative to CP55940 at eliciting Gq-dependent intracellular calcium increase” value is recorded as “more”.

The record behind these values is article PMC6979073, “Control of glutamate release by complexes of adenosine and cannabinoid receptors” (BMC Biology, 2020).
